The target in assay [1] is T1, Dual specificity mitogen-activated protein kinase kinase 6 (Homo sapiens) (UniProt P52564).
T1 sequence (whole entry): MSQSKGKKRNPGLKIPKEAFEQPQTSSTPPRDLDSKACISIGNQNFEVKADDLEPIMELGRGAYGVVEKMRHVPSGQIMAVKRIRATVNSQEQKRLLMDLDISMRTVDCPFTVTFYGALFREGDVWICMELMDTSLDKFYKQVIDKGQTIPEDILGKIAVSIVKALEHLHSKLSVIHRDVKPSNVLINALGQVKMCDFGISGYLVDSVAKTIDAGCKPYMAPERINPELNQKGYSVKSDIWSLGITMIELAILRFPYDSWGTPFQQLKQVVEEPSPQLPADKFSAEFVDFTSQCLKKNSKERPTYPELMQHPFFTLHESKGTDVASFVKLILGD

In assay [2] the target is Dual specificity protein kinase CLK2 (Homo sapiens) (UniProt P49760).
Sequence of Dual specificity protein kinase CLK2 (Homo sapiens) (P49760 whole entry, looked up): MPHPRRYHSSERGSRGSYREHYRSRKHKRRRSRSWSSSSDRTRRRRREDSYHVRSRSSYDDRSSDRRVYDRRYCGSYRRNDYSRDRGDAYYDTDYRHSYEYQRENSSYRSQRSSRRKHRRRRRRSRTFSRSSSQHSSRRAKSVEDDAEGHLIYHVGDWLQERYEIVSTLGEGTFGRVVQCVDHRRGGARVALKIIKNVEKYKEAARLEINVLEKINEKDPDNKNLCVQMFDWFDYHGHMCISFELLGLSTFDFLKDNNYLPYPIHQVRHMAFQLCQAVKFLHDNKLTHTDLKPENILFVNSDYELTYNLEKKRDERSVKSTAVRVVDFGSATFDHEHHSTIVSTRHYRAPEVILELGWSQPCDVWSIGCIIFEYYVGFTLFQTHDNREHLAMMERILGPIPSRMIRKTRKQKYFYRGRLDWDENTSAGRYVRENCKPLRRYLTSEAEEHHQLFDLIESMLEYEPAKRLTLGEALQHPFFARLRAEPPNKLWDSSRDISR
Assay [3] deals with T2, Serine/threonine-protein kinase PLK4 (Homo sapiens) (UniProt O00444).
T2 sequence (whole entry): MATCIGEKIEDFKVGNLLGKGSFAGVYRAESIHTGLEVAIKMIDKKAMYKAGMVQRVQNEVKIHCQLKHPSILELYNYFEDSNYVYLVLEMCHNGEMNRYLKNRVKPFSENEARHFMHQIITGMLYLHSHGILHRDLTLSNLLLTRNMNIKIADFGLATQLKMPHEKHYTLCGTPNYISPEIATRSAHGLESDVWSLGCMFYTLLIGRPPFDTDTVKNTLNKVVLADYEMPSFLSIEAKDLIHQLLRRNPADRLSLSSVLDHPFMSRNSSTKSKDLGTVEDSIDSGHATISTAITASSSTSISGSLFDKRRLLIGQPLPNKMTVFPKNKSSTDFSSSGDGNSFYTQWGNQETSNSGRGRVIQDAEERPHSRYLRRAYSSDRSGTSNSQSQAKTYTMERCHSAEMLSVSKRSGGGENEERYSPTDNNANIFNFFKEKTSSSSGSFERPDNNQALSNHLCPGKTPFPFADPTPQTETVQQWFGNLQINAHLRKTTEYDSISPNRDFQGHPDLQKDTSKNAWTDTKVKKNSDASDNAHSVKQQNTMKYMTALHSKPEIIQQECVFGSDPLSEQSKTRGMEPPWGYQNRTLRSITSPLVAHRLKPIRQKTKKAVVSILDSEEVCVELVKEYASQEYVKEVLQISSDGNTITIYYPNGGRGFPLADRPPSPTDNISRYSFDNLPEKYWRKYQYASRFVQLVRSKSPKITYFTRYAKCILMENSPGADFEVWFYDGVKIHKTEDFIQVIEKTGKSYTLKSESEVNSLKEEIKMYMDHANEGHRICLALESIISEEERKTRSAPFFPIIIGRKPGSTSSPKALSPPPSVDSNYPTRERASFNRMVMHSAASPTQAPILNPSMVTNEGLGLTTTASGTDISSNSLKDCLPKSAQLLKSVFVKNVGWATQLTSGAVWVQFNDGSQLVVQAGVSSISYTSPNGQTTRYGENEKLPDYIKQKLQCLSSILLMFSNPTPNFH

For assay [4], the target named is Serine/threonine-protein kinase PAK 5 (Homo sapiens) (UniProt Q9P286).
Sequence of Serine/threonine-protein kinase PAK 5 (Homo sapiens) (Q9P286 whole entry, looked up): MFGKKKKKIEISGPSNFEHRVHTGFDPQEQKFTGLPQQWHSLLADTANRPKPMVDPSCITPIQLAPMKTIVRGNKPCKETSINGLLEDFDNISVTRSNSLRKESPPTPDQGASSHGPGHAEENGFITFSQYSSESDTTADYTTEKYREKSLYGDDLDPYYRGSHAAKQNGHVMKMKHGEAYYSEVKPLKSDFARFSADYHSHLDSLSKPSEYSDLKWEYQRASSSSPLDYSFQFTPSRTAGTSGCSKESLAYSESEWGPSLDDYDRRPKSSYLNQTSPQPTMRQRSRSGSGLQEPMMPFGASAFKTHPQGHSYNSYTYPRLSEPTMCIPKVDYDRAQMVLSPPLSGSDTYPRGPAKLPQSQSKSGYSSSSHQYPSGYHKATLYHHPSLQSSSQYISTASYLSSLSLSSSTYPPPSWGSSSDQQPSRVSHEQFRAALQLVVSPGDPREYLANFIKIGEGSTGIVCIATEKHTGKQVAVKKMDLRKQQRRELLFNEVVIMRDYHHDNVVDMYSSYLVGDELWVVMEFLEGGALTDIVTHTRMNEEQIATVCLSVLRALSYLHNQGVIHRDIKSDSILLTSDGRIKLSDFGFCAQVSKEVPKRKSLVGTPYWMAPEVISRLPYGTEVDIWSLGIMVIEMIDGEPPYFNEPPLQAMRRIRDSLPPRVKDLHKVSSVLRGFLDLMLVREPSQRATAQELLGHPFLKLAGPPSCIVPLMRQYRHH
For assay [5], the target named is Serine/threonine-protein kinase RIO2 (Homo sapiens) (UniProt Q9BVS4).
Sequence of Serine/threonine-protein kinase RIO2 (Homo sapiens) (Q9BVS4 whole entry, looked up): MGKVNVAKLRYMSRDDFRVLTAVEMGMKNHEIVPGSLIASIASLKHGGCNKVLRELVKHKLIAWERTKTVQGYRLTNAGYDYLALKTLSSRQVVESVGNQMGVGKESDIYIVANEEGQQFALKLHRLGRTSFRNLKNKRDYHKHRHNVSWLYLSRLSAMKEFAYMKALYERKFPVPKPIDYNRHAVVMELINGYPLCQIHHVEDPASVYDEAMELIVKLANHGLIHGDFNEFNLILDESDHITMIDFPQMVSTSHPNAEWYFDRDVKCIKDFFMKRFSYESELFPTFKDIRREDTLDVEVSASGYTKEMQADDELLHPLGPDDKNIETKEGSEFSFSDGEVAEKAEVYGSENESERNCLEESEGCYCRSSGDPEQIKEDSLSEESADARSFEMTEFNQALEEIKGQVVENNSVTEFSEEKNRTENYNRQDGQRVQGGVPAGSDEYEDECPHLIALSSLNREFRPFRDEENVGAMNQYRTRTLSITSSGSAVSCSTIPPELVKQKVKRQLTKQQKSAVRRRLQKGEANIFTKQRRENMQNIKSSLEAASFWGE
Assay [6] has as its target Serine/threonine-protein kinase 16 (Homo sapiens) (UniProt O75716).
The target of assay [7] is Serine/threonine-protein kinase 25 (Homo sapiens) (UniProt O00506).
Sequence of Serine/threonine-protein kinase 25 (Homo sapiens) (O00506 whole entry, looked up): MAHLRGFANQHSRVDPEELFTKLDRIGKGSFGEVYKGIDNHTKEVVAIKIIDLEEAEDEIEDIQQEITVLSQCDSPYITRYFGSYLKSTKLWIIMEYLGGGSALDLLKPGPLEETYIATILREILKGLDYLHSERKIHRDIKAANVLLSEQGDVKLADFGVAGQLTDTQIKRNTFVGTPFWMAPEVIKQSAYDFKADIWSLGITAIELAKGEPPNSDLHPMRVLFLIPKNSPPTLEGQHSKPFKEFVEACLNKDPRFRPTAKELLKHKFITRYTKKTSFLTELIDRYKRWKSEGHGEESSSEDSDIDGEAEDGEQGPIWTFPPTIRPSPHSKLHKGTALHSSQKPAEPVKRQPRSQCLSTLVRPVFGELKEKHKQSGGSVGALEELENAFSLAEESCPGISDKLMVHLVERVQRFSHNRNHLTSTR
In assay [8] the target is 5'-AMP-activated protein kinase catalytic subunit alpha-2 (Homo sapiens) (UniProt P54646).
Sequence of 5'-AMP-activated protein kinase catalytic subunit alpha-2 (Homo sapiens) (P54646 whole entry, looked up): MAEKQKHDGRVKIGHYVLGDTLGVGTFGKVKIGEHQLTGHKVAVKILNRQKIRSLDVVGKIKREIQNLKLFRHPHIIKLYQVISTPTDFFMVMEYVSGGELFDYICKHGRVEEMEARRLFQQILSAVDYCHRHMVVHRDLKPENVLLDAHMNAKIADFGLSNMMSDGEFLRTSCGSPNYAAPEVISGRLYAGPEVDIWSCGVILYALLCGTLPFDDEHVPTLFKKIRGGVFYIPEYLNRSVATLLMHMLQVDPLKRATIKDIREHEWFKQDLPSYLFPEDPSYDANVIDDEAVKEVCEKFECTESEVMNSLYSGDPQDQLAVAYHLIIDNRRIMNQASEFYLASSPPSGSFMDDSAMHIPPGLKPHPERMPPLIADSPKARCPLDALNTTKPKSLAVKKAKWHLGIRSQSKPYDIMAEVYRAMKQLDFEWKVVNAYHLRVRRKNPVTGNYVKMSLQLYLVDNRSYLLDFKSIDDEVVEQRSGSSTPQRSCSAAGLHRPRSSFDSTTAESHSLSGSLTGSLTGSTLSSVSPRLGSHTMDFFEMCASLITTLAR
The target of assay [9] is Serine/threonine-protein kinase 26 (Homo sapiens) (UniProt Q9P289).
Sequence of Serine/threonine-protein kinase 26 (Homo sapiens) (Q9P289 2-416 limits assumed): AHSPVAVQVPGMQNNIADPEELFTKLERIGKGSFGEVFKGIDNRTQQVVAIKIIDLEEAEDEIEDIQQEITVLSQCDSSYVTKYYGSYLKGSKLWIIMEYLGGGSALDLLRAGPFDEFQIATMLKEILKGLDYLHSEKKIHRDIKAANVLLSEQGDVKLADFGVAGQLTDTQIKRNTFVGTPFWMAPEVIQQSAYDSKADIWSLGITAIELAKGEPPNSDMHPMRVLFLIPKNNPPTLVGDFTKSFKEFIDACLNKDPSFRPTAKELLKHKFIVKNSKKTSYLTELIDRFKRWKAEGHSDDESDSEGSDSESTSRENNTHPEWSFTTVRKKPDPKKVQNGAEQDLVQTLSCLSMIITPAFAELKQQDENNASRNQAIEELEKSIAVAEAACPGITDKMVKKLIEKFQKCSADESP
Assay [10] concerns the target Calcium/calmodulin-dependent protein kinase type 1D (Homo sapiens) (UniProt Q8IU85).
Assay [11] addresses Serine/threonine-protein kinase OSR1 (Homo sapiens) (UniProt O95747).
Assay [12] concerns the target Cyclin-dependent kinase 2 (Homo sapiens, UniProt P24941).
Assay [13] has as its target Calcium/calmodulin-dependent protein kinase type 1G (Homo sapiens) (UniProt Q96NX5).
Assay [14] deals with T3, Serine/threonine-protein kinase VRK3 (Homo sapiens) (UniProt Q8IV63).
T3 sequence (whole entry): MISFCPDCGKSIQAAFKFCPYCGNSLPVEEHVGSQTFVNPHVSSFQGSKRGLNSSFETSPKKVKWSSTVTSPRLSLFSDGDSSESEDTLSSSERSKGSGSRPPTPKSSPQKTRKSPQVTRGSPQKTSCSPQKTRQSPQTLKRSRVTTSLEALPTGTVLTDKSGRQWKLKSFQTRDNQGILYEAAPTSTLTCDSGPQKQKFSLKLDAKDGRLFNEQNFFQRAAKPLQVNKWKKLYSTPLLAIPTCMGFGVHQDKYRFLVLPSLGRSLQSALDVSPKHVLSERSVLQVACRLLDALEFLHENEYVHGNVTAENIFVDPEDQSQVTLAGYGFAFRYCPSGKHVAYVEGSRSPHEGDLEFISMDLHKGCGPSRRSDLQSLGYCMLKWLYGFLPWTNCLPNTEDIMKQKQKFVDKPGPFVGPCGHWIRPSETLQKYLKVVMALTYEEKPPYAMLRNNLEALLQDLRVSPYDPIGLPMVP

The target in assay [15] is T4, Serine/threonine-protein kinase Nek2 (Homo sapiens) (UniProt P51955).
T4 sequence (whole entry): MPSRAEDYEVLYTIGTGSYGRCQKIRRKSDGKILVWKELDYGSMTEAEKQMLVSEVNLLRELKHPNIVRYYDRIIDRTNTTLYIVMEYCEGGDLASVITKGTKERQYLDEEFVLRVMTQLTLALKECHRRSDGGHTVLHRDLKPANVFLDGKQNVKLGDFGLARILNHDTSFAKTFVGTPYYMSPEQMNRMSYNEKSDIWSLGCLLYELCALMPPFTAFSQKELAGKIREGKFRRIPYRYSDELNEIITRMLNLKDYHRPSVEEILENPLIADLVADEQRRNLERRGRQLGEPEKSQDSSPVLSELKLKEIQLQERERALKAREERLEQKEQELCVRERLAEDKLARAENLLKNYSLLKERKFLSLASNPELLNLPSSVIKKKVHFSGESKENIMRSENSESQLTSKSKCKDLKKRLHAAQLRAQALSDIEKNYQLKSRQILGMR

Experimental findings from ChEMBL document CHEMBL1145498, “A systematic interaction map of validated kinase inhibitors with Ser/Thr kinases” (Proc Natl Acad Sci U S A, 2007) are described below.

Sequence of Serine/threonine-protein kinase OSR1 (Homo sapiens) (O95747 2-527 limits assumed): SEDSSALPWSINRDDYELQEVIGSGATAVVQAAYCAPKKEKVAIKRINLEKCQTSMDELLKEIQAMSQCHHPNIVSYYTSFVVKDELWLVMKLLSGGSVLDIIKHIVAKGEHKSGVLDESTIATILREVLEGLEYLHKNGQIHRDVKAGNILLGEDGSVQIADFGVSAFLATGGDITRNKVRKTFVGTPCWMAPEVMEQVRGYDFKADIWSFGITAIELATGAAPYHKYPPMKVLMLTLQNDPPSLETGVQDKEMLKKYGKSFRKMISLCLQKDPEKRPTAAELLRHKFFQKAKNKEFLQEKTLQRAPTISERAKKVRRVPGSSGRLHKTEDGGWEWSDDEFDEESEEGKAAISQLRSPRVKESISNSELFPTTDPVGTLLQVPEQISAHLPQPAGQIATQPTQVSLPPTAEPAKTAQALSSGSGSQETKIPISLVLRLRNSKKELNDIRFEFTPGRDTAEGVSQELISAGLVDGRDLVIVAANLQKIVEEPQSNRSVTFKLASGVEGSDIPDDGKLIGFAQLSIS
Sequence of Calcium/calmodulin-dependent protein kinase type 1G (Homo sapiens) (Q96NX5 whole entry): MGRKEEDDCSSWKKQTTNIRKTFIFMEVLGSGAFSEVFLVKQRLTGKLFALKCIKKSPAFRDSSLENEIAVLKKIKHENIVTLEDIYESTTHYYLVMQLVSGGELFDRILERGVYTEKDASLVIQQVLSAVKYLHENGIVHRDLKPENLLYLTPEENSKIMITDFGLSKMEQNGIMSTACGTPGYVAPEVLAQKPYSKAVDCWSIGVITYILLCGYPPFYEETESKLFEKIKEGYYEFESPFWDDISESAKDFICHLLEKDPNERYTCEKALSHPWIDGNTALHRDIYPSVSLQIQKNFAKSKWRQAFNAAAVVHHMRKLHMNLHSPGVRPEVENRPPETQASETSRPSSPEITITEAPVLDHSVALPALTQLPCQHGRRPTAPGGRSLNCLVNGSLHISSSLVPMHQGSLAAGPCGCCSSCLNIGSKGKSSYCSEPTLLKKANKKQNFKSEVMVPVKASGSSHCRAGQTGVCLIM
Sequence of Calcium/calmodulin-dependent protein kinase type 1D (Homo sapiens) (Q8IU85 whole entry, looked up): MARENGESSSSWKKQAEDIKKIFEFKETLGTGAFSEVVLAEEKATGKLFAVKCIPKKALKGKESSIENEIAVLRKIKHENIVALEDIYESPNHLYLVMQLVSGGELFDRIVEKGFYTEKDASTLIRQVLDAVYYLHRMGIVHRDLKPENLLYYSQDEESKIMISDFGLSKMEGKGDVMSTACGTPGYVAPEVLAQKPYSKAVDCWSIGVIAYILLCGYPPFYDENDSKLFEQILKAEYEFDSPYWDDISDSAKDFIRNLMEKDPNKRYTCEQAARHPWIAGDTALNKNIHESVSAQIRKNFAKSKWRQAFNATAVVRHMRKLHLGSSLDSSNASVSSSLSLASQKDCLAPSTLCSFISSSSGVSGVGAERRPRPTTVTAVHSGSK
Sequence of Serine/threonine-protein kinase 16 (Homo sapiens) (O75716 whole entry): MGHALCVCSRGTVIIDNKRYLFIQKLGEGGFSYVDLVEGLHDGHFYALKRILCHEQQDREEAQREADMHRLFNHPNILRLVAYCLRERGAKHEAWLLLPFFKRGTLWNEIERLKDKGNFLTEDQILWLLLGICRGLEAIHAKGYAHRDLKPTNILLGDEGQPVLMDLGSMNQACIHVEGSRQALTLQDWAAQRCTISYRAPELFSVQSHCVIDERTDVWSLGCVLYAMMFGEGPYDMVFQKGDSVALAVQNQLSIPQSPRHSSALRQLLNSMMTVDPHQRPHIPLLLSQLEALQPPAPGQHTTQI

With `O=C1Nc2ccc(I)cc2/C1=C1/Nc2ccccc2/C1=N\O`, the ΔTm in assay [1] is 1.5 °C; in assay [2], 2.9 °C; in [3] it was 8.7 °C; in assay [4], 1.3 °C; in assay [5], 2.5 °C; in [6] it was 1.9 °C. Also, the ΔTm is 3.2 °C in assay [7]; 6.8 °C in [8]; 4.5 °C in assay [9]; 0.1 °C in [10]; -1.3 °C in [11]; 6.8 °C in assay [12]. The ΔTm in assay [13] came to 0.5 °C; in [14] it was 0.4 °C; in assay [15] it was 1.4 °C.

Take `NC1=NC(=O)/C(=C2\CCNC(=O)c3[nH]c(Br)cc32)N1` [HYMENIALDISINE]: the ΔTm in assay [1] stood at 0.6 °C; in assay [2], 5.6 °C; in assay [3], 3 °C; in assay [4], 0.4 °C; in assay [5] it was 0.2 °C; in assay [6], 1.5 °C. In addition, the ΔTm in assay [7] came out at 3.5 °C; in assay [8], 1 °C; in [9] it was 4 °C; in assay [10], 0 °C; in [11] it was 0.5 °C; in assay [12] it was 1.5 °C. Also, the ΔTm in assay [13] was -0.2 °C; in assay [14], 0.3 °C; in assay [15], 0.8 °C.

For the molecule `O=C(O)/C=C/c1cc(CO)ccc1CO`, the ΔTm in assay [1] is -0.2 °C; in [2] it was 0.6 °C; in [3] it was 1 °C; in assay [4], -4.4 °C; in assay [5], 0.4 °C; in assay [6], 0.3 °C. Moreover, the ΔTm in [7] was 0.5 °C; in assay [8] it was 0.7 °C; in assay [9], 0.4 °C; in assay [10] it was 0.1 °C; in assay [11], 0.5 °C; in assay [12], 0.9 °C. In addition, the thermal shift (ΔTm) in assay [13] was determined as 0 °C; in assay [14], 0.2 °C; in assay [15], 1 °C.

On to `CC(C)c1cc(/C=C(\C#N)C(=O)NCCCc2ccccc2)cc(C(C)C)c1O`, for which the ΔTm in assay [1] is 0.3 °C; in assay [2] it was 1.3 °C; in [3] it was 0.9 °C; in assay [4] it was 0.7 °C; in assay [5] it was -0.5 °C; in assay [6], 0.5 °C. Also, the ΔTm in assay [7] was 0.7 °C; in assay [8] it was -0.8 °C; in assay [9], 0.3 °C; in assay [10] it was 1.1 °C; in assay [11], 0.9 °C; in assay [12], 1.2 °C. The ΔTm in assay [13] was 2.8 °C; in assay [14], 0.8 °C; in [15] it was 2.1 °C.

With `Ic1cccc(CSc2nnc(-c3ccncc3)o2)c1`, the ΔTm was 0.3 °C in assay [1]; 1.7 °C in [2]; 0.1 °C in [3]; -0.2 °C in assay [4]; 1.6 °C in assay [5]; 0.2 °C in assay [6]. In addition, the ΔTm in assay [7] is -0.3 °C; in assay [8] it was -0.7 °C; in [9], -0.5 °C; in [10], -0.3 °C; in assay [11], -0.7 °C; in assay [12], -0.3 °C. In addition, the results for the ΔTm in assay [13], in assay [14] and in assay [15] were -0.7 °C, -0.1 °C and -0.2 °C, respectively.

In the case of `Cn1cc(C2=C(c3cn(CCCSC(=N)N)c4ccccc34)C(=O)NC2=O)c2ccccc21`, the ΔTm in assay [1] amounted to 0.9 °C; in [2] it was 5.1 °C; in assay [3] it was 2.6 °C; in assay [4], 1.9 °C; in [5], 3.1 °C; in assay [6], 3.9 °C. The thermal shift (ΔTm) in assay [7] was 3.9 °C; in [8], 2.1 °C; in assay [9], 2.3 °C; in [10], 2 °C; in assay [11], -0.5 °C; in assay [12], 8.4 °C. Also, the results for the ΔTm in assay [13], in assay [14] and in assay [15] were 3.1 °C, 0.8 °C and 0.4 °C, respectively.

Regarding `O=C1Cc2c([nH]c3ccc([N+](=O)[O-])cc23)-c2ccccc2N1`, the shift in melting temperature (ΔTm) worked out at 1.2 °C in assay [1]; 0.7 °C in assay [2]; 6.9 °C in assay [3]; 3.8 °C in assay [4]; 1.3 °C in [5]; 1 °C in assay [6]. The ΔTm in assay [7] is 2.4 °C; in [8], 0.7 °C; in assay [9], 2.5 °C; in [10] it was 0.8 °C; in assay [11], 1.2 °C; in assay [12], 4.4 °C. Further, the ΔTm came out at 0.5 °C in assay [13], 0 °C in [14] and 2.2 °C in [15].

With `CN(C)CC1CCn2c(c(C3=C(c4c[nH]c5ccccc45)C(=O)NC3=O)c3ccccc32)C1` (stereo not given), the shift in melting temperature (ΔTm) is 0.8 °C in assay [1]; 1.1 °C in [2]; 0.1 °C in assay [3]; 0.6 °C in [4]; 0.7 °C in [5]; 1.3 °C in assay [6]. The ΔTm in [7] was 0.4 °C; in [8] it was -0.5 °C; in assay [9], 0 °C; in assay [10], -0.1 °C; in assay [11] it was -0.4 °C; in assay [12], 2.5 °C. For the same molecule, the figures for the thermal shift (ΔTm) in [13], in assay [14] and in assay [15] were 0.3 °C, 0.6 °C and 1 °C, respectively.

As to `COc1ccc(CNC(=O)Nc2ncc([N+](=O)[O-])s2)cc1`, the thermal shift (ΔTm) in assay [1] was 0.2 °C; in assay [2] it was -0.9 °C; in [3], 1 °C; in assay [4], 0.7 °C; in [5], 1.7 °C; in [6], 0.3 °C. The ΔTm in assay [7] was 0.1 °C; in [8], -0.1 °C; in [9], -0.3 °C; in [10] it was 0.3 °C; in assay [11] it was 1.6 °C; in assay [12] it was 0.8 °C. Besides, the values for the ΔTm in assay [13], in [14] and in assay [15] were 0.4 °C, -0.5 °C and 0.6 °C, respectively.

Usually ΔTm stands for the shift of the melting midpoint relative to a reference.
